From publication PMC5638611, “Effects of glutamate and ivermectin on single glutamate-gated chloride channels of the parasitic nematode H. contortus” (PLoS Pathogens, 2017)

Tests used:
[1] = target: T1, glutamate-gated chloride channel receptor α (avr-14b) (GluClR), homomeric (Haemonchus contortus, UniProt O46124); experiment: outside-out patch single-channel recording; direct activation by […] IVM, and potentiation of […] glutamate; assay type: cell-based
T1 construct: gene gbr-2; homomeric avr-14b subunit expressed in HEK AD293 cells
T1 sequence (O46124 entry or part of it): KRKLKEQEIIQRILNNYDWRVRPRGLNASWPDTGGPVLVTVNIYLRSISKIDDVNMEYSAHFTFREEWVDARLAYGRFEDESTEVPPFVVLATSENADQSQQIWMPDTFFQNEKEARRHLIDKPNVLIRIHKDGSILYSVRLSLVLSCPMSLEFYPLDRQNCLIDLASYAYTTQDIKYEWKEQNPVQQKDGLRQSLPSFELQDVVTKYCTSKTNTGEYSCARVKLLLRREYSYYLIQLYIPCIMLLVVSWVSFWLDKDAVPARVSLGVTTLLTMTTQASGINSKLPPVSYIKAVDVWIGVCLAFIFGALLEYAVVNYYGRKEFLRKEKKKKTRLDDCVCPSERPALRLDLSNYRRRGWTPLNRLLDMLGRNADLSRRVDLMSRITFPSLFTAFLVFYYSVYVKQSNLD

[2] = target: T2, glutamate-gated chloride channel receptor α (avr-14b) (GluClR), homomeric, G36'A mutant (Haemonchus contortus, UniProt O46124, G329A); experiment: outside-out patch single-channel recording; direct activation by […] IVM; assay type: cell-based
T2 construct: gene gbr-2; homomeric avr-14b subunit expressed in HEK AD293 cells
T2 sequence (O46124 31-438 G329A): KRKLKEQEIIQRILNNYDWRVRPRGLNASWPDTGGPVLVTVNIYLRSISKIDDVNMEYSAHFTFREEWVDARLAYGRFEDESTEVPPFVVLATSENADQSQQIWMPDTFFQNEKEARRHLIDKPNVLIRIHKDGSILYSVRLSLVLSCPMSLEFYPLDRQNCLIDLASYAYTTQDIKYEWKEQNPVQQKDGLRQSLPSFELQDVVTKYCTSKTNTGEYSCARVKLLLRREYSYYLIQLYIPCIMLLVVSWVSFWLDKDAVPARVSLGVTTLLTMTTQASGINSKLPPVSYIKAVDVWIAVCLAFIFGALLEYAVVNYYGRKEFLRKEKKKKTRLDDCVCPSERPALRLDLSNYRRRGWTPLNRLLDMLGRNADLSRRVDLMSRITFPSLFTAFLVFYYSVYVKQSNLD

In the case of CC[C@H](C)[C@H]1O[C@]2(CC[C@@H]1C)C[C@@H]1C[C@@H](C/C=C(\C)[C@@H](O[C@H]3C[C@H](OC)[C@@H](O[C@H]4C[C@H](OC)[C@@H](O)[C@H](C)O4)[C@H](C)O3)[C@@H](C)/C=C/C=C3\CO[C@@H]4[C@H](O)C(C)=C[C@@H](C(=O)O1)[C@]34O)O2 [Ivermectin], the “outside-out patch single-channel recording; direct activation by 5 nM IVM, and p” value [1] is reported as 5 nM and the “outside-out patch single-channel recording; direct activation by 5 nM IVM” value [2] is reported as 5 nM.
